Test results published in US20040102622A1, “Modulation of hepatocyte growth factor receptor expression” (Isis Pharmaceuticals Inc., priority 2002, published 2004).

Tested on: human hepatocyte growth factor receptor mRNA

Substance	inhibition of human hepatocyte growth factor receptor expression
ISIS 155104: 2′-MOE gapmer, phosphorothioate backbone, sequence atgcaatggatgatctggga (antisense ATGCAATGGATGATCTGGGA; all phosphorothioate, sugars by position and methylation of C not given here; 2'-MOE gapmer)	at least 35%
ISIS 209535: 2′-MOE gapmer, phosphorothioate backbone, sequence ataacaatacaagtcctatg (antisense ATAACAATACAAGTCCTATG; all phosphorothioate, sugars by position and methylation of C not given here; 2'-MOE gapmer)	at least 35%
ISIS 155120: 2′-MOE gapmer, phosphorothioate backbone, sequence gtgtcctattaaagcagtgc (antisense GTGTCCTATTAAAGCAGTGC; all phosphorothioate, sugars by position and methylation of C not given here; 2'-MOE gapmer)	at least 35%
ISIS 155122: 2′-MOE gapmer, phosphorothioate backbone, sequence aagcctatccaaatgaggag (antisense AAGCCTATCCAAATGAGGAG; all phosphorothioate, sugars by position and methylation of C not given here; 2'-MOE gapmer)	at least 35%
ISIS 209547: 2′-MOE gapmer, phosphorothioate backbone, sequence tcctgcttcaatttcccata (antisense TCCTGCTTCAATTTCCCATA; all phosphorothioate, sugars by position and methylation of C not given here; 2'-MOE gapmer)	at least 35%
ISIS 209533: 2′-MOE gapmer, phosphorothioate backbone, sequence caccactggcaaagcaaaat (antisense CACCACTGGCAAAGCAAAAT; all phosphorothioate, sugars by position and methylation of C not given here; 2'-MOE gapmer)	at least 35%
ISIS 155110: 2′-MOE gapmer, phosphorothioate backbone, sequence tcgggacactaactgaattc (antisense TCGGGACACTAACTGAATTC; all phosphorothioate, sugars by position and methylation of C not given here; 2'-MOE gapmer)	at least 35%
ISIS 209544: 2′-MOE gapmer, phosphorothioate backbone, sequence taatagtgcaattttggcaa (antisense TAATAGTGCAATTTTGGCAA; all phosphorothioate, sugars by position and methylation of C not given here; 2'-MOE gapmer)	at least 35%
ISIS 209526: 2′-MOE gapmer, phosphorothioate backbone, sequence ttgatagggaatgcacacat (antisense TTGATAGGGAATGCACACAT; all phosphorothioate, sugars by position and methylation of C not given here; 2'-MOE gapmer)	at least 35%
ISIS 209550: 2′-MOE gapmer, phosphorothioate backbone, sequence tgcgcgctgtagtcccagct (antisense TGCGCGCTGTAGTCCCAGCT; all phosphorothioate, sugars by position and methylation of C not given here; 2'-MOE gapmer)	at least 35%
ISIS 209541: 2′-MOE gapmer, phosphorothioate backbone, sequence accaagtactgtaagagagg (antisense ACCAAGTACTGTAAGAGAGG; all phosphorothioate, sugars by position and methylation of C not given here; 2'-MOE gapmer)	at least 35%
ISIS 155106: 2′-MOE gapmer, phosphorothioate backbone, sequence cacaacctgcatgaagcgac (antisense CACAACCTGCATGAAGCGAC; all phosphorothioate, sugars by position and methylation of C not given here; 2'-MOE gapmer)	at least 35%
ISIS 155118: 2′-MOE gapmer, phosphorothioate backbone, sequence catccagcatacagtttctt (antisense CATCCAGCATACAGTTTCTT; all phosphorothioate, sugars by position and methylation of C not given here; 2'-MOE gapmer)	at least 35%
ISIS 209522: 2′-MOE gapmer, phosphorothioate backbone, sequence agaggtttatctttcggtgc (antisense AGAGGTTTATCTTTCGGTGC; all phosphorothioate, sugars by position and methylation of C not given here; 2'-MOE gapmer)	at least 35%
ISIS 155128: 2′-MOE gapmer, phosphorothioate backbone, sequence actgtgaatttttcatccag (antisense ACTGTGAATTTTTCATCCAG; all phosphorothioate, sugars by position and methylation of C not given here; 2'-MOE gapmer)	at least 35%
ISIS 209539: 2′-MOE gapmer, phosphorothioate backbone, sequence gcttccccattgctgttagg (antisense GCTTCCCCATTGCTGTTAGG; all phosphorothioate, sugars by position and methylation of C not given here; 2'-MOE gapmer)	at least 35%
ISIS 209521: 2′-MOE gapmer, phosphorothioate backbone, sequence ggaaccagtggagaagtcag (antisense GGAACCAGTGGAGAAGTCAG; all phosphorothioate, sugars by position and methylation of C not given here; 2'-MOE gapmer)	at least 35%
ISIS 209524: 2′-MOE gapmer, phosphorothioate backbone, sequence ctcatgtagaatgacattct (antisense CTCATGTAGAATGACATTCT; all phosphorothioate, sugars by position and methylation of C not given here; 2'-MOE gapmer)	at least 35%
ISIS 155117: 2′-MOE gapmer, phosphorothioate backbone, sequence gtagattgcaggcagacaga (antisense GTAGATTGCAGGCAGACAGA; all phosphorothioate, sugars by position and methylation of C not given here; 2'-MOE gapmer)	at least 35%
ISIS 155124: 2′-MOE gapmer, phosphorothioate backbone, sequence tatgatgtctcccagaagga (antisense TATGATGTCTCCCAGAAGGA; all phosphorothioate, sugars by position and methylation of C not given here; 2'-MOE gapmer)	at least 35%
ISIS 155113: 2′-MOE gapmer, phosphorothioate backbone, sequence ctaatgagttgatcatcata (antisense CTAATGAGTTGATCATCATA; all phosphorothioate, sugars by position and methylation of C not given here; 2'-MOE gapmer)	at least 35%
ISIS 155123: 2′-MOE gapmer, phosphorothioate backbone, sequence gcaaagctgtggtaaactct (antisense GCAAAGCTGTGGTAAACTCT; all phosphorothioate, sugars by position and methylation of C not given here; 2'-MOE gapmer)	at least 35%
ISIS 209546: 2′-MOE gapmer, phosphorothioate backbone, sequence aattcaagttttggactcca (antisense AATTCAAGTTTTGGACTCCA; all phosphorothioate, sugars by position and methylation of C not given here; 2'-MOE gapmer)	at least 35%
ISIS 155109: 2′-MOE gapmer, phosphorothioate backbone, sequence agctcgctgttcaatttcag (antisense AGCTCGCTGTTCAATTTCAG; all phosphorothioate, sugars by position and methylation of C not given here; 2'-MOE gapmer)	at least 35%
ISIS 155132: 2′-MOE gapmer, phosphorothioate backbone, sequence gattccctcggtcagaaatt (antisense GATTCCCTCGGTCAGAAATT; all phosphorothioate, sugars by position and methylation of C not given here; 2'-MOE gapmer)	at least 35%
ISIS 209537: 2′-MOE gapmer, phosphorothioate backbone, sequence agaggtttatctgccaaaac (antisense AGAGGTTTATCTGCCAAAAC; all phosphorothioate, sugars by position and methylation of C not given here; 2'-MOE gapmer)	at least 35%
ISIS 155114: 2′-MOE gapmer, phosphorothioate backbone, sequence aattgttgctttcaaaggca (antisense AATTGTTGCTTTCAAAGGCA; all phosphorothioate, sugars by position and methylation of C not given here; 2'-MOE gapmer)	at least 35%
